Assay results as given in PubChem BioAssay AID1552 (Sanford-Burnham Center for Chemical Genomics, 2009).
The source made the active and inactive calls. How the calls were made is not given here.

biological target: Ubiquitin-conjugating enzyme E2 N (Homo sapiens) (UniProt P61088); assay: NMR detection of UBE2N ligand binding – biophysical, purified protein (AID 1552); details: NMR binding to purified UBE2N
Sequence (P61088 whole entry, looked up): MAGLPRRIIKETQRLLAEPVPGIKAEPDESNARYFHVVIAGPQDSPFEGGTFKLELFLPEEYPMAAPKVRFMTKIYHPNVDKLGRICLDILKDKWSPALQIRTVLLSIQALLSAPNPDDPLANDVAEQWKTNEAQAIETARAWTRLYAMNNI

Row | SMILES | Kd
1 | CCNC(=S)N1CCCC(C(N)=O)C1 (stereo unspecified) | > 4 mM (inactive)
2 | NC(=O)c1cccc2c(=O)oc3ccccc3c12 | > 4 mM (inactive)
3 | CC1CCC2(OC1)OC1CC3C4CC[C@H]5C[C@@H](O)CC[C@]5(C)C4CC(=O)[C@]3(C)C1C2C (stereo partly specified) | > 4 mM (inactive)
4 | N=Cc1c(O)n(-c2cccc(Cl)c2)c(=O)[nH]c1=O | > 4 mM (inactive)
5 | CSc1nc(NC(C)(C)C)nc(N2CCOCC2)n1 | > 4 mM (inactive)
6 | NCc1cccc2nsnc12 | > 4 mM (inactive)
7 | c1cnc(N2CCSCC2)nc1 | > 4 mM (inactive)
8 | COc1cccc(/C=C2/SC(N)=NC2=O)c1 | > 4 mM (inactive)
9 | CSc1ccccc1NC(=O)c1ccco1 | > 4 mM (inactive)
10 | CC(C)=CCc1c2c(c(O)c3c(=O)c(O)c(-c4ccccc4)oc13)C=CC(C)(C)O2 | > 4 mM (inactive)
11 | CN1CCN(c2ccc(N)cc2)CC1 | > 4 mM (inactive)
12 | Cc1cc(C(=O)N2CCCCCC2)cs1 | > 4 mM (inactive)
13 | CC1(C)NC(=O)N(CCOc2ccc3c(c2)CCC3)C1=O | > 4 mM (inactive)
14 | NC(=O)CN1CC(c2ccccc2)CC1=O (stereo unspecified) | > 4 mM (inactive)
15 | Cc1onc(-c2ccccc2)c1C(=O)Nc1ccncc1 | > 4 mM (inactive)
16 | Oc1cccc2[nH]ccc12 | > 4 mM (inactive)
17 | O=C1NC(=O)C(Cc2cccs2)C(=O)N1 | > 4 mM (inactive)
18 | O=S(=O)(Cc1ccccc1)N1CCCCCC1 | > 4 mM (inactive)
19 | O=C(Nc1ccc2c(c1)OCO2)c1cnn2cccnc12 | > 4 mM (inactive)
20 | O=C(Nc1cccnc1)c1c(F)cccc1F | > 4 mM (inactive)
21 | CC1=CCc2c(cc3oc(C)cc(=O)c3c2O)OC1 | > 4 mM (inactive)
22 | COc1c2ccoc2cc2oc(C)cc(=O)c12 | > 4 mM (inactive)
23 | NC(=O)CNC(=O)c1ccccc1 | > 4 mM (inactive)
24 | O=C(O)c1ccc2nccnc2c1 | > 4 mM (inactive)
25 | O=S(=O)(CCN1CCCC1)c1ccccc1 | > 4 mM (inactive)

Row | SMILES | Kd
26 | Cc1cc(NC(=O)c2ccccc2C(=O)O)no1 | > 4 mM (inactive)
27 | NS(=O)(=O)c1ccc(NC(=O)c2cccs2)cc1 | > 4 mM (inactive)
28 | CCn1nnc2c(NCc3ccccn3)ncnc21 | > 4 mM (inactive)
29 | Cc1cc2nc3c(=O)[nH]c(=O)nc-3n(CC(O)C(O)C(O)CO)c2cc1C (stereo unspecified) | > 4 mM (inactive)
30 | CC(=O)Nc1ccc(C)cc1NC(C)=O | > 4 mM (inactive)
31 | O=C1CSC(=Nc2cc(Cl)ccc2Cl)N1 | > 4 mM (inactive)
32 | Cc1ccc2cc(CO)ccc2n1 | > 4 mM (inactive)
33 | Cc1cc(C)n2nc(-c3cccnc3)nc2n1 | > 4 mM (inactive)
34 | CC1CCN(S(=O)(=O)N(C)C)CC1 | > 4 mM (inactive)
35 | COc1cccc(OC)c1C(=O)N1CCOCC1 | > 4 mM (inactive)
36 | COc1cccc(NC(=O)c2cnn(C)c2Cl)c1 | > 4 mM (inactive)
37 | CN(C)S(=O)(=O)c1cccc(N)c1 | > 4 mM (inactive)
38 | Cc1cc2ncc(C(=O)O)c(C)n2n1 | > 4 mM (inactive)
39 | NC(=O)c1ccc(N2C(=O)C=CC2=O)cc1Cl | > 4 mM (inactive)
40 | CC1(C)C[C@@H]2C(=O)CC[C@H]3O[C@]3(C)CC[C@H]21 | > 4 mM (inactive)
41 | CC(C)n1c(Nn2cnnc2)nc2ccccc21 | > 4 mM (inactive)
42 | O=C(O)c1ccc(NC(=O)c2cccs2)cc1 | > 4 mM (inactive)
43 | COCC(=O)N1CCCc2ccccc21 | > 4 mM (inactive)
44 | O=C1COc2cc(O)ccc21 | > 4 mM (inactive)
45 | O=C(CC1SC(=O)NC1=O)Nc1ccccc1 (stereo unspecified) | > 4 mM (inactive)
46 | NCc1ccc(S(N)(=O)=O)cc1 | > 4 mM (inactive)
47 | COc1cc(-c2coc3cc(OCc4ccccc4)c(OC)c(O)c3c2=O)cc(O)c1OC | > 4 mM (inactive)
48 | C1CCN2C[C@@H]3C[C@H](CN4CCCC[C@@H]34)[C@H]2C1 | > 4 mM (inactive)
49 | OCCN1CCN(C(=S)c2ccc(Cl)cc2)CC1 | > 4 mM (inactive)
50 | CC(=O)Nc1ccc(NC(=O)N2CCOCC2)cc1 | > 4 mM (inactive)

Row | SMILES | Kd
51 | Clc1ccccc1-c1nc(-c2cccnc2)no1 | > 4 mM (inactive)
52 | Cc1nnsc1C(=O)Nc1ccccn1 | > 4 mM (inactive)
53 | Nc1nnc(SCc2ccc(F)cc2Cl)s1 | > 4 mM (inactive)
54 | O=C(c1ccco1)N1CCN(Cc2cccc(F)c2)CC1 | > 4 mM (inactive)
55 | COc1ccc(C2(C)NC(=O)NC2=O)cc1 (stereo unspecified) | > 4 mM (inactive)
56 | C=CCSCC=C | > 4 mM (inactive)
57 | NC12CC3CC(C1)CC(O)(C3)C2 | > 4 mM (inactive)
58 | COc1cc(OC)c(-c2nc3cnccc3n2C)cc1OC | > 4 mM (inactive)
59 | O=C(CS(=O)(=O)c1ccccc1)N1CCCCCC1 | > 4 mM (inactive)
60 | CSc1nnc2ccc(-c3cccnc3)nn12 | > 4 mM (inactive)
61 | Cc1oc(-c2ccccc2)nc1CC(=O)O | > 4 mM (inactive)
62 | NC(=O)c1ccc(N=Cc2ccc[nH]2)cc1 | > 4 mM (inactive)
63 | Cc1ccc(CNc2ccc(O)cc2)cc1 | > 4 mM (inactive)
64 | CSc1ccccc1NC(=O)c1ccoc1C | > 4 mM (inactive)
65 | Cc1nnc2sc(-c3ccco3)nn12 | > 4 mM (inactive)
66 | COc1ccc(-c2c(OC)c3c(OC)c4c(cc3oc2=O)OC(C)(C)C=C4)cc1 | > 4 mM (inactive)
67 | c1cncc(Nc2nc(-c3ccncc3)cs2)c1 | > 4 mM (inactive)
68 | CNC(C)[C@H](O)c1ccccc1 (stereo partly specified) | > 4 mM (inactive)
69 | OCc1snnc1-c1ccccc1 | > 4 mM (inactive)
70 | NC1=NC(=O)/C(=C/c2ccccc2[N+](=O)[O-])S1 | > 4 mM (inactive)
71 | Cc1cc(=O)[nH]c(N2CCCCC2)n1 | > 4 mM (inactive)
72 | Nc1nc2ccc(S(N)(=O)=O)cc2s1 | > 4 mM (inactive)
73 | CCn1c(C)c(C(C)=O)c(N2CCN(C)CC2)nc1=S | > 4 mM (inactive)
74 | O=C1CC(NCc2ccco2)C(=O)NN1 (stereo unspecified) | > 4 mM (inactive)
75 | CS(=O)(=O)c1nncn1-c1ccccc1 | > 4 mM (inactive)

Row | SMILES | Kd
76 | O=c1[nH]nc(Cc2ccccn2)c2ccccc12 | > 4 mM (inactive)
77 | CS(=O)(=O)Nc1ccc(C(=O)N2CCCCC2)cc1 | > 4 mM (inactive)
78 | CC(=O)OC1CCC23C(=O)OC45CCC(C6=CC(=O)OC6)C4(C)CCC2C5CCC3(O)C1 (stereo unspecified) | > 4 mM (inactive)
79 | CCC(C)C(=O)O[C@H]1[C@H](O)C2C(CN3CC(C)CCC3[C@@]2(C)O)C2C[C@]34O[C@]5(O)C(OC(=O)C(C)(O)CC)CC[C@@]3(C)C5C(OC(C)=O)[C@@H](OC(C)=O)C4[C@@]21O (stereo partly specified) | > 4 mM (inactive)
80 | Nc1csc(C(=O)O)c1 | > 4 mM (inactive)
81 | C[C@@H](N)[C@@H](O)c1ccccc1 | > 4 mM (inactive)
82 | c1ccc(Cc2nnc3sc(-c4cccnc4)nn23)cc1 | > 4 mM (inactive)
83 | O=C(Nc1ccc(N2CCOCC2)cc1)C1CC1 | > 4 mM (inactive)
84 | COC(=O)C1CCc2ccccc2N1 (stereo unspecified) | > 4 mM (inactive)
85 | Cc1nnc(SCC(N)=O)c2ccccc12 | > 4 mM (inactive)
86 | Nc1ccc2c(c1)N1CCN=C1S2 | > 4 mM (inactive)
87 | Cc1cc(C)cc(OC(=O)N2CCOCC2)c1 | > 4 mM (inactive)
88 | Cc1nnc(C)n1/N=C/c1cccs1 | > 4 mM (inactive)
89 | CC(=O)Oc1ccc(N2C(=O)C3C4C=CC(O4)C3C2=O)cc1 (stereo unspecified) | > 4 mM (inactive)
90 | NC(=O)Cn1nnc(-c2ccc(C(F)(F)F)cc2)n1 | > 4 mM (inactive)
91 | NCCN=C1NS(=O)(=O)c2ccccc21 | > 4 mM (inactive)
92 | Cn1cnc2c(=S)[nH]c(=O)n(Cc3ccccc3)c21 | > 4 mM (inactive)
93 | Fc1ccc2onc(C3CCNCC3)c2c1 | > 4 mM (inactive)
94 | CCOC(=O)c1cnc2n(c1=O)CCS2 | > 4 mM (inactive)
95 | CC(=O)O[C@H]1CCC2(C)C3=C(CCC2C1(C)C)[C@@]1(C)CC[C@@H](C(C)CCC=C(C)C)[C@]1(C)CC3 (stereo partly specified) | > 4 mM (inactive)
96 | Cc1cc(C(=O)O)n[nH]1 | > 4 mM (inactive)
97 | CC1=NN(c2ccc(C)cc2)C(=O)C1 | > 4 mM (inactive)
98 | Cc1ccc2[nH]cc(CCN)c2c1 | > 4 mM (inactive)
99 | NS(=O)(=O)c1ccc2c3c(cccc13)C(=O)N2 | > 4 mM (inactive)
100 | CC(=O)Nc1nc(C)c(C(C)=O)s1 | > 4 mM (inactive)

Row | SMILES | Kd
101 | CC(=O)Nc1ccc(N(C)C(C)=O)cc1 | > 4 mM (inactive)
102 | COc1ccc(NS(=O)(=O)c2ccc(N)cc2)nn1 | > 4 mM (inactive)
103 | CN1CCN(C(=S)NC(=O)c2ccn(C)n2)CC1 | > 4 mM (inactive)
104 | Cn1ccnc1SCc1cc(=O)[nH]c2ccccc12 | > 4 mM (inactive)
105 | COc1cc(O)cc(/C=C/c2ccccc2)c1 | > 4 mM (inactive)
106 | COC(=O)c1c(OC)cc2c(c1C)Oc1c(Cl)c(OC(C)=O)c(Cl)c(C)c1C(=O)O2 | > 4 mM (inactive)
107 | COc1ccc(/C=C2\SC(N)=NC2=O)cc1 | > 4 mM (inactive)
108 | NC(=O)c1ccc(NC(=O)c2ccco2)cc1 | > 4 mM (inactive)
109 | CC(C)CCCC(C)[C@H]1CCC2C3CC=C4CC(=O)CC[C@]4(C)C3CC[C@@]21C (stereo partly specified) | > 4 mM (inactive)
110 | O=C(O)C1CSC(c2cccnc2)N1 (stereo unspecified) | > 4 mM (inactive)
111 | CC(=O)c1c(C)nc(C)nc1NC(=O)C(C)C | > 4 mM (inactive)
112 | CC(=O)Nc1cccc(-c2nc3ccccc3c(=O)o2)c1 | > 4 mM (inactive)
113 | O=C(O)c1ccc(-n2cncn2)cc1 | > 4 mM (inactive)
114 | O=C1NC(=O)C(=Cc2ccccc2)C(=O)N1 | > 4 mM (inactive)
115 | O=C1CSC(=S)N1N1C(=O)C2C3C=CC(C3)C2C1=O (stereo unspecified) | > 4 mM (inactive)
116 | C[C@]12C=CC(=O)C=C1CCC1C2CC[C@]2(C)C(=O)CCC12 (stereo partly specified) | > 4 mM (inactive)
117 | Cn1c(CNc2ccccc2)cc(=O)n(C)c1=O | > 4 mM (inactive)
118 | CN(C)C(=S)Nc1nc2ccccc2s1 | > 4 mM (inactive)
119 | COC(=O)Cc1csc(N)n1 | > 4 mM (inactive)
120 | CN(C)c1ccc(N2C(=O)CCC2=O)cc1 | > 4 mM (inactive)
121 | CC(=O)Oc1ccc2c(c1C(C)C)CCC1C(C)(C)CCC[C@]21C (stereo partly specified) | > 4 mM (inactive)
